# Target: sigma receptor
# Test: Radioreceptor assay: sigma receptor, displacement of [^3 H]-3-(+)-PPP
# Assay type: binding, male Sprague-Dawley rats
# Settings: units ± SEM; rat brain crude membranes; 2 nM [^3 H]-(+)-3-PPP; 1 hr incubation at room temperature; pH 7.4; read-out: Ki apparent
# Procedure: To determine the effects of the compounds in a sigma receptor assay, crude membrane preparations were prepared as follows. Brains from male Sprague-Dawley rats were homogenized in 10 volumes (wt/vol) of 0.32M sucrose, using a Polytron grinder. The homogenate was centrifuged at 900×G for 10 minutes at 4° C. The supernatant was collected and centrifuged at 22,000×g for 20 minutes at 4° C. The pellet was resuspended in 10 volumes of 50 mM Tris/HCl buffer (pH 7.4) and centrifuged at 22,000×g for 20 minutes at 4° C. The pellet was resuspended in 5 mM Tris/HCl buffer (pH 7.4) to give a final concentration of 250 mg/ml of the crude material. Incubation tubes were prepared in triplicate and contained 0.1 ml of tissue suspension, 2 nM of [^3 H]-(+)-1-propyl-3-(3-hydroxyphenyl)piperidine [^3 H]-3-(+)-PPP, and varying concentrations of the displacing ligand (0.1-1,000 nM) in a final volume of 0.5 ml. After a 1 hr incubation at room temperature, the contents of the test tubes were filtered through GS filter paper which had been presoaked for at least 2 hours in 0.05% polyethyleneimine. The test tubes were rinsed three times with Tris/HCl buffer. Radioactivity on the filters was determined using liquid scintillation spectrometry and inhibition curves were calculated according to the method of Cheng and Prusoff [Biochem. Pharmacol., 22, 3099-3108 (1973)].
row,Structure (SMILES),Ki
1,"c1ccc2c(c1)C1CCC2C(N2CCCCC2)CC1 (stereo not drawn) [Compound No. 2, exo-1-(2-Benzobicyclo[3.2.2]nonenyl)piperidine]",10 ± 2 nM
2,"OCCN1CCN(C2CCC3CCC2c2ccccc23)CC1 (stereo not drawn) [Compound No. 4, endo- and exo-1-(2-Benzobicyclo[3.2.2]nonenyl)-4-(2-hydroxyethyl)piperazine]",305 ± 20 nM
3,CN1CCN(C2CCC3CCC2c2ccccc23)CC1 (stereo not drawn) [Compound No. 5],16000 ± 4000 nM
4,"c1ccc2c(c1)C1CCC2C(N2CCCCC2)CC1 (stereo not drawn) [Compound No. 3, endo-1-(2-Benzobicyclo[3.2.2]nonenyl)piperidine]",150 ± 20 nM
5,"c1ccc2c(c1)C1CCC2C(N2CCCCC2)CC1 (stereo not drawn) [Compound No. 1, exo- and endo-1-(2-Benzobicyclo[3.2.2]nonenyl)piperidine]",6 ± 1 nM

# System: not listed separately
# Test: Blockade of agonist (N-allylnormetazocine)-induced stereotyped behavior and ataxia
# Assay type: in vivo
# Settings: 1 mg/kg i.p. test compound; 15 mg/kg i.p. N-allylnormetazocine
# Procedure: Compounds of the invention were evaluated for their ability to block the effects of N-allylnormetazocine on the induction of stereotyped behavior and ataxia. To test for antagonism, drugs are administered at varying times before i.p. administration of 15 mg/kg of N-allylnormetazocine. Behavioral and ataxia ratings are taken at 2.5 minutes, 5 minutes, and every 5 minutes thereafter until the animal returns to control behavior. […] The lowest dose of the test compound which is capable of blocking the stereotyped behavior and ataxia induced by N-allylnormetazocine was determined.
row,Structure (SMILES),block of N-allylnormetazocine-induced stereotyped behavior
1,"c1ccc2c(c1)C1CCC2C(N2CCCCC2)CC1 (stereo not drawn) [Compound No. 1, exo- and endo-1-(2-Benzobicyclo[3.2.2]nonenyl)piperidine]",fully blocked

# From patent publication US5098916A, “Propanobicyclic amine derivatives for CNS disorders” (G. D. Searle & Co., priority 1990, dated 1992)
